Tests used:
[1] = cited from earlier work
[2] = tested on: platelet aggregation; conditions: following oral dosing, oral tablet or capsule; cited from earlier work
[3] = tested on: rabbit ear vein; test: IV irritation studies in rabbit ear vein; type: in vivo; conditions: ASA solution of different osmolalities (300 to 1300 mOsm/kg) injected in rabbit ear vein
Description: It is an unexpected discovery or finding.

[4] = pH of bulk and reconstituted solutions of ASA lyophilized with bases from TBA/water; type: physicochemical
Description: The pH of the solution was raised to 6.5 using 1N sodium hydroxide. Phase separation was observed, probably due to salting out of inorganic base from TBA/Water system. In the next trial, we first raised the pH of the solution to 5.0 using 1N sodium hydroxide, and then sodium phosphate, dibasic to raise the pH to 6.5. Sodium phosphate, dibasic was used for a better control of pH. Since we still observed phase separation it appears that inorganic bases or buffers may not be compatible with a 80% TBA/20% water system. We may require more water, for example, 70% TBA/30% water in the system to dissolve the alkalinizing agents.
Inorganic buffers such as sodium phosphate, dibasic, are not soluble in this solvent system.
The reconstituted solution pH was 4.71.
In the next trial, we investigated incorporation of […] to facilitate complete neutralization. […] Arginine was, then, slowly added to the slurry to neutralize aspirin. […] The apparent pH of the bulk solution was 6.49. 5 ml aliquots placed in flint vials and lyophilized. Upon completion of lyophilization, the content of vial was reconstituted with 5 ml of Water for Injection. […] The reconstituted solution pH was 4.8.
Based on the above studies, it was evident that larger amount of base is needed to neutralize ASA in the preferred solvent system. To incorporate more base in the bulk solution, we explored use of 60/40 TBA/water system as solvent for lyophilization. […] The apparent pH of the bulk solution was 6.31. […] The reconstituted solution pH was 4.41. […] We reconstituted the lyophile with 5 ml of buffer solution containing different concentrations of disodium phosphate.

[5] = Particle size distribution (Malvern Master sizer 2000, dry powder volume distribution); type: physicochemical; conditions: API used to make the batches
Description: Additionally, we have measured the particle size distribution of the lyophiles and API. The measurement of particle size (Malvern, Master sizer 2000) of all the samples were done by using dry powder volume distribution method.

[6] = Lyophilization of aspirin with lysine from water, HPLC analysis; type: physicochemical; conditions: ASA with lysine in water, 50 mg/ml, pH 6.5, HPLC
Experimental: The pH of the solution was 4.5. We added an additional amount of lysine to raise the pH of the bulk solution to 6.5. When all the drug was dissolved, a clear solution was formed. […] The product, however, was not lyophilized properly. The lyophilized cake collapsed.

[7] = Bulk solution stability of ASA in TBA-water system; type: physicochemical; conditions: 80/20, 70/30 and 60/40 TBA/water solutions, 24-hour storage at ambient storage conditions
Experimental: For a robust lyophilization process, the drug should not degrade in the bulk solution for lyophilization for at least 24 hours.

o-acetylsalicylic acid [ASA]
aqueous solubility [1]: about 3 mg/ml | time to 10% of potency loss ([1]; concentrated bulk solution): about 1.3 hours | onset of inhibition of platelet aggregation [2]: approximately 40 minutes | IV irritation [3]: no irritation was observed | apparent pH of the bulk solution ([4]; 2 g aspirin, 100 mg sodium hydroxide, about 1.6 g arginine in 100 ml 70/30 TBA/water): 6.49 | apparent pH of the bulk solution ([4]; 2 g of ASA and 400 mg sodium hydroxide in 100 ml 60/40 TBA/water): 6.31 | reconstituted solution pH ([4]; lyophile of 2 g aspirin, 100 mg sodium hydroxide, about 1.6 g arginine per 100 ml 70/30 TBA/water, 5 ml aliquot reconstituted with 5 ml Water for Injection): 4.8 | D50% (μm) [5]: 92.9 μm | D90% (μm) [5]: 249.5 μm | D100% (μm) [5]: 431.0 μm | ASA degraded during the lyophilization process [6]: about 40% | degradation in bulk solution [7]: No appreciable degradation

Reference: patent US12048708B2 (RHOSHAN PHARMACEUTICALS, INC., priority 2017, dated 2024)
